According to article PMC11181322, “Copper(II) Complexes with Isomeric Morpholine-Substituted 2-Formylpyridine Thiosemicarbazone Hybrids as Potential Anticancer Drugs Inhibiting Both Ribonucleotide Reductase and Tubulin Polymerization: The Morpholine Position Matters” (Journal of Medicinal Chemistry, 2024):

Assays:
MES-SA/Dx5 cells [1] = experiment: Cell cycle analysis, MES-SA/Dx5; format: cell-based, human
Experimental: (§1) Cell cycle arrest in S-phase has been observed for Triapine analogues at concentrations ranging from 0.25 to 5.0 μM,[82],[83] in line with a mechanism of action relying on RNR inhibition.
(§2) Figure S18. Cell cycle arrest for (a) proligand H2L4 and (b) complex 4 in MES-SA cells, as
(§3) well as for (c) proligand H2L4 and (d) complex 4 in the MES-SA/Dx5 cancer cell line.
(§4) Table S4. Cell cycle arrest for proligand H2L4 and complex 4 in the MES-SA and MES-
(§5) SA/Dx5 cancer cell lines.
(§6) H2L4 (MES-SA) H2L4 (MES-SA/Dx5) complex 4 (MES-SA) complex 4 (MES-SA/Dx5)
(§7) Table S5. Cell cycle arrest for proligand H2L6 and complex 6 in the MES-SA and MES-
(§8) H2L6 (MES-SA) H2L6 (MES-SA/Dx5) complex 6 (MES-SA) complex 6 (MES-SA/Dx5)
(§9) (1 picture or pasted object on this page, not shown here)

[2] = pKa of the copper(II) complexes (UV–vis / pH-potentiometric titrations); details: 30% (v/v) DMSO/H2O, 25 °C
Experimental: The solution speciation of copper(II) complexes with H2L^3–H2L^6 was studied primarily by UV–vis spectrophotometric titrations in a 30% (v/v) DMSO/H2O solvent mixture as a function of pH.
An Agilent Carry 8454 diode array spectrophotometer was used to record the UV–vis spectra in the interval 200–800 nm. The path length was 1 cm. Proton dissociation constants (pKa) of the proligands and complexes were calculated by the computer program PSEQUAD.[94] Spectrophotometric titrations were performed on samples containing the proligands at a 50–100 μM concentration with a KOH solution in the presence of 0.1 M KCl at 25.0 ± 0.1 °C in the pH range from 2 to 11.5 in a 30% (v/v) DMSO/H2O solvent mixture, and the metal-to-ligand ratios were 1:0, 1:1, and 1:2. An Orion 710A pH meter equipped with a Metrohm combined electrode (type 6.0234.100) and a Metrohm 665 Dosimat buret were used for the titrations. […] Ar was also passed over the solutions during the titrations. Measurements were carried out in the range ca. 1.0–2.0 by preparing individual samples, in which KCl was partially or completely replaced by HCl, and pH values were calculated from the strong acid content. The conditional stability constants (K′) of the copper(II) complexes were calculated at pH 5.90 based on the spectral changes via the displacement reaction with EDTA in the presence 50 mM MES and 0.1 M KCl in water or in 30% (v/v) DMSO/H2O. In the competition experiments, the samples contained 25 μM copper(II) and 25 μM proligand, and the concentration of EDTA was varied from 0 to 400 μM. The conditional stability constants of the metal complexes (K′) and the individual spectra of the species were calculated by the computer program PSEQUAD.[94]

MES-SA cells [3] = experiment: Cell cycle analysis, MES-SA; format: cell-based, human; details: for G0/G1 / G2/M / S: MES-SA
Experimental: as §1, §2, §3, §4, §5, §6, §7, §8, §9

[4] = Redox reaction of the copper(II) complexes with GSH (UV–vis, anoxic); format: physicochemical; details: pH 7.4 (50 mM HEPES); ccomplex = 25 μM; cGSH = 1.25 mM; pure water; 25 °C
Text: The direct reduction of the copper(II) complexes with the antioxidant GSH was investigated in anoxic aqueous solution at pH 7.4 by UV–vis spectrophotometry. At this pH, the complex [Cu(HL)]^+ is assumed to predominate according to the speciation studies (vide supra). The spectral changes were monitored in the wavelength range 250–550 nm by using a large excess of GSH (50 equiv). In this wavelength range, the spectral changes are due to the absorption of the metal complex and the ligand.
These changes imply that, after reduction in the presence of excess GSH, the generated copper(I) complex is not stable and liberates the free TSC ligand. […] The time-dependent absorbance changes are shown for all the studied systems in Figure 4b. The observed rate constants (kobs) were calculated (Table 2) as a semiquantitative description of the reaction kinetics. […] The obtained kobs values fall into the range for Triapine (0.10 min^–1), 2-pyridinecarboxaldehyde TSC (0.041 min^–1), and N-monomethylated N-methyl-Triapine (0.077 min^–1), measured under similar conditions.[67] To find out whether this slightly different kinetics for 6 and 3–5 is in accordance with their reduction potentials, cyclic voltammetry was performed.
The redox reaction of the copper(II) complexes with GSH and ascorbic acid was studied at 25.0 ± 0.1 °C on a Hewlett-Packard 8452A diode array spectrophotometer using a special, tightly closed tandem cuvette (Hellma Tandem Cell, 238-QS). The reactants were separated until the reaction was triggered. Both isolated pockets of the cuvette were completely deoxygenated by bubbling a stream of Ar for 10 min before mixing the reactants. Spectra were recorded before and then immediately after the mixing, and changes were followed until no further absorbance change was observed. One of the isolated pockets contained the reducing agent, and the other contained the complex. Their final concentrations were 1250 and 25 μM, respectively. The pH of all the solutions was adjusted to 7.40 by 50 mM HEPES buffer. The ionic strength of the solution was 0.1 M (KCl). The stock solutions of the reducing agents and the complexes were freshly prepared every day. During the calculations, the absorbance (A) – time (t) curves were fitted and analyzed at the λmax of the complex. (A0 – Afinal) × e^(−a×t) + Afinal was the fitting equation used, where the A0, Afinal, and a parameters were refined and accepted at the minimal value of the weighted sum of squared residuals (difference between the measured and calculated absorbance values) at the given wavelength. Then, observed rate constants (kobs) of the redox reaction were obtained from the data points of the simulated absorbance–time curves as the slope of the ln(A/A0) vs time plots.

MES-SA/Dx5 cells [5] = experiment: Intracellular ROS generation, DCF-DA assay, MES-SA/Dx5; format: cell-based, human; details: 25 μM, 4 h treatment
Experimental: (§10) ROS accumulation was evaluated in both the MES-SA and MES-SA/Dx5 cell lines by using 2′,7′-dichlorodihydrofluorescein diacetate (H2DCF-DA) as a probe. This compound enters the cells by passive diffusion, and after oxidation, it is converted to the highly fluorescent 2′,7′-dichlorofluorescein (DCF), enabling the estimation of intracellular ROS levels. ROS generation was measured after a 4 h treatment with 25 μM H2L^6 or 6; tert-butylhydroperoxide (TBHP, 25 μM) was used as a positive control.
(§11) Figure 6 Intracellular ROS generation measured by the DCF-DA assay in MES-SA (filled bars) and MES-SA/Dx5 (lattice bars) cells, after a 4 h treatment with the indicated compounds at 25 μM: H2L^6 (gray), complex 6 (yellow), Triapine (green), and TBHP (brown). Values indicate fold change relative to the fluorescence of the cells treated with fluorescent probe alone (orange bars), following normalization to the initial fluorescence at the beginning of the incubation. Paired t test to the medium control was calculated; […]; **P < 0.01. Values were calculated from at least three independent experiments.
(§12) The human uterine sarcoma cell lines MES-SA and the doxorubicin selected MES-SA-Dx5 were obtained from ATCC (MES-SA: No. CRL-1976, MES-SA/Dx5: No. CRL-1977) and were used for the intracellular ROS generation studies. […]

MES-SA cells [6] = experiment: Intracellular ROS generation, DCF-DA assay, MES-SA; format: cell-based, human; details: 25 μM, 4 h treatment
Experimental: as §10, §11, §12

tubulin = experiment: Inhibition of [3H]colchicine binding to tubulin; details: for inhibition of colchicine binding % inhibition ± SD: tubulin 0.5 μM, colchicine 5 μM
[7] = cell line not given (figures: MES-SA and MES-SA/Dx5)

SMILES	G0/G1 (MES-SA/Dx5 cells [1]; MES-SA/Dx5, 2 µM)	G2/M (MES-SA/Dx5 cells [1]; MES-SA/Dx5, 2 µM)	S (MES-SA/Dx5 cells [1]; MES-SA/Dx5, 2 µM)	G0/G1 (MES-SA/Dx5 cells [1]; MES-SA/Dx5, 4 µM)	G2/M (MES-SA/Dx5 cells [1]; MES-SA/Dx5, 4 µM)	S (MES-SA/Dx5 cells [1]; MES-SA/Dx5, 4 µM)	G0/G1 (MES-SA/Dx5 cells [1]; MES-SA/Dx5, 8 µM)	G2/M (MES-SA/Dx5 cells [1]; MES-SA/Dx5, 8 µM)	S (MES-SA/Dx5 cells [1]; MES-SA/Dx5, 8 µM)	pKa[Cu(H2L)]2+ ([2]; UV–vis spectrophotometry)	pKa[Cu(H2L)]2+ ([2]; pH potentiometry)	G0/G1 (MES-SA cells [3]; 2 µM)	G2/M (MES-SA cells [3]; 2 µM)	S (MES-SA cells [3]; 2 µM)	G0/G1 (MES-SA cells [3]; 4 µM)	G2/M (MES-SA cells [3]; 4 µM)	S (MES-SA cells [3]; 4 µM)	G0/G1 (MES-SA cells [3]; 8 µM)	G2/M (MES-SA cells [3]; 8 µM)	kobs, redox reaction with GSH [4]	further results
Cc1cc(NC(=NN=Cc2cc(CN3CCOCC3)ccn2)[S][Cu][Cl])cc(C)c1O [complex 4, [Cu(HL^4)Cl]·1.5H2O]	48%	32%	20%	43%	36%	21%	47%	36%	16%	4.48 ± 0.01	4.60 ± 0.02	63%	21%	16%	56%	25%	19%	50%	30%	0.079 ± 0.019 min^–1	S (MES-SA cells [3]; 8 µM): 20%; cell cycle effect (MES-SA cells [3]; [7]): gradually increased the G2/M ratio in a concentration-dependent manner
Cc1cc(NC(=NN=Cc2ccc(CN3CCOCC3)cn2)[S][Cu][Cl])cc(C)c1O [complex 5, [Cu(HL^5)Cl]·2.5H2O]	–	–	–	–	–	–	–	–	–	4.75 ± 0.01	4.95 ± 0.04	–	–	–	–	–	–	–	–	0.058 ± 0.010 min^–1	–
Cc1cc(NC(=NN=Cc2cccc(CN3CCOCC3)n2)[S][Cu][Cl])cc(C)c1O [complex 6, [Cu(HL^6)Cl]·H2O]	53%	35%	12%	39%	48%	12%	21%	68%	11%	–	–	74%	17%	9%	35%	55%	11%	24%	68%	0.165 ± 0.011 min^–1	Intracellular ROS generation (MES-SA/Dx5 cells [5]): significant ROS induction; Intracellular ROS generation (MES-SA cells [6]): significant ROS induction; S (MES-SA cells [3]; 8 µM): 8%; concentrations inducing G2/M-phase arrest (MES-SA cells [3]; [7]): ≥ 4 µM; inhibition of colchicine binding % inhibition ± SD (tubulin; 5 μM inhibitor): 5.8 ± 5%; inhibition of colchicine binding % inhibition ± SD (tubulin; 25 μM inhibitor): 33 ± 2%; fold less potent than CA-4 in inhibiting [3H]colchicine binding (tubulin; at the 5 μM concentration): 17 fold
